# Measurements as given in US12521425B2, “Method of liver cancer treatment with safranal-based formulations” (priority 2019, dated 2026).
# Legend:
# HepG2 cells [1] = assay: Caspase-3 and 7 activities (Caspase-Glo 3/7); assay type: cell-based; settings: HepG2, 500 and 700 μM, 24 hours
# Procedure: Caspase-3 and 7 activities. HepG2 were seeded at a density of 5000 cells/well in a 96-well plate, and were allowed to attach. After which, cells were treated with 500 and 700 μM of safranal for 24 hours. Caspase-3 and 7 activities were detected using Caspase-Glo® 3/7 Assay kit according to manufacturer instructions (Promega). Luminescent signal was detected using GloMax Discover System (Promega).
# [2] = tested on: DEN-induced hepatic neoplasia; assay: Liver gross and histopathological examination in DEN-induced HCC model; assay type: in vivo, male Wistar rats; settings: HCC rats
# Procedure: A modified version of the protocol described by DePeralta et al. (2016) and Schiffer et al. (2005) was used here to establish the hepatocarcinogenesis model.
# On the first 15 weeks, the control PBS group was treated with 1×PBS, whereas the experimental groups were given an intraperitoneal injection (IP) of 50 mg/kg of diethylnitrosoamine (DEN, Sigma Aldrich), a widely used chemical for inducing cancer, once a week. DEN was diluted with 1×PBS. Following a one-week break (week 16), the next three weeks (weeks 17 to 19) of treatment commenced. All drugs were administrated by oral gavage. All doses were chosen according to literature (Alsaied et al., 2014; Karafakioglu et al., 2017). For the HCC+sorafenib group, the drug (Carbosynth Limited) was administered at a dose of 10 mg/kg, five days a week. For the HCC+safranal group, the drug (Sigma Aldrich) was administered at a dose of 200 mg/kg, five days a week. For the HCC+safranal+sorafenib group, the drugs were administered at a dose of 200 mg/kg safranal+10 mg/kg sorafenib, five days a week. Both safranal and sorafenib were diluted with 1×PBS and drops of Tween 80. […] After 24-hours from last treatment, the rats were euthanized by mild diethyl ether and dissected in equal conditions. Blood and whole liver were collected.
# Liver sample specimens were fixed in 10% neutral buffered formalin, dehydrated in a series of graded ethanol, embedded in paraffin blocks, and cut into 3 μm-thick sections. To detect histopathological changes, sections were stained with hematoxylin and eosin (H&E), and reticulin stain kit according to the protocol provided (Abcam), then examined under light microscope (Ozkececi et al., 2016). Blinded examination of tissue samples was carried out by a pathologist from Tawam Hospital—United Arab Emirates.
# HepG2 cells [3] = assay: RNAseq differential gene expression and GO enrichment; assay type: cell-based, Homo sapiens; settings: for genes significantly differentially expressed: vs untreated
# Procedure: RNAseq libraries construction and sequencing. Total RNA was isolated from three biological replicates of safranal treatments and untreated sample using RNeasy Mini Kit (Qiagen) following the manufacturer's instructions. The RNAseq libraries were prepared using TruSeq RNA sample prep kit (Illumina, Inc.) following the manufacturer's instructions. Briefly, TruSeq RNA sample prep kit converts the poly-A containing mRNA in total RNA into a cDNA library using poly-T oligo-attached magnetic bead selection. Following mRNA purification, the RNA is chemically fragmented prior to reverse transcription and cDNA generation. The fragmentation step results in an RNAseq library that includes inserts that range in size from approximately 100-400 bp. The average insert size in an Illumina TruSeq RNA sequencing library is approximately 200 bp. The cDNA fragments then go through an end repair process, the addition of a single ‘A’ base to the 3′ end and then ligation of the adapters. Then, the products are purified and enriched with PCR to create the final double stranded cDNA libraries. Finally, libraries quality control and quantification were performed with a Bioanalyzer Chip DNA 1000 series II (Agilent) and sequenced directly using the high-throughput Illumina HiSeq sequencing system (Illumina, Inc.).
# Alignment and analysis of Illumina reads against the reference genome. The data was processed through the standard RNAseq analysis pipeline at NYUAD. Briefly, alignments were performed using tophat2 v2.1.0 with the parameters “-no-novel-junctions” and “-G” when specifying the genome file. Following the tophat2 alignment stage, read counts were generated using HTseq count, and the counts were analyzed using the DESeq2 R library. The reference genome and GFF annotation correspond to the Homo sapiens GRCh38.p2 genome version. Venn diagram summarizing the gene expression analysis was constructed using the web-based tool InteractiVenn. Heatmaps were produced by Excel.
# Gene set enrichment analysis. Functional and gene set enrichment analysis of DEGs was performed using eXploring Genomic Relations (XGR) which is an open source tool for enrichment analysis with default parameters. The enrichment test is based on Hypergeometric distribution to identify the enriched gene ontology terms. The false positive rate was calculated by simulating a random set of genes of different sizes and found they were independent of the size of gene sets. Network analysis of over-representation GO terms was performed using the Biological Networks Gene Ontology tool (BiNGO) plug-in for Cytoscape. BiNGO retrieved the relevant GO Biological process annotation then tested for significance using the hypergeometric test and corrected multiple testing using Benjamini and Hochberg false discovery rate (FDR) correction ≤0.05.
# [4] = male rats, oral (Hosseinzadeh et al., 2013); cited from earlier work
# HepG2 cells [5] = assay: MTT assay, cell viability; assay type: cell-based; settings: HepG2, 50-900 μM for 24, 48 and 72 hours; read-out: IC50, inhibition of cellular viability
# Procedure: MTT assay. HepG2 cells were seeded at a density of 5000 cells/well in 96-well plates in 100 μL of complete growth medium. Cells were allowed to attach before being treated with different concentrations of safranal (Sigma Aldrich) (50 μM, 100 μM, 500 μM, 700 μM and 900 μM) for 24, 48 and 72 hours. After which, the cells were treated with 3-[4,5-dimethylthiazol-2-yl]-2,5-diphenyltratrazolium bromide (MTT) (Sigma Aldrich) and incubated for 3 hours. The formed formazan crystals were dissolved using DMSO and the absorbance of the resulting product was measured at 570 nm using an Epoch microplate spectrophotometer (Bio-Tek). Cell viability is presented as percentile of the untreated control which was calculated accordingly: Percent of viable cells=(Abs. of treated cells/Abs. of control cells)×100. *p≤0.05, **p≤0.001, ***p≤0.0001.
smiles,measurement,setting,value
CC1=C(C=O)C(C)(C)CC=C1 [safranal],activity of executioner caspases-3 and -7,HepG2 cells [1],increased
same,area of neoplastic foci (histology),"[2]; H&E, versus HCC",restoration of the normal architecture of the liver
same,number of liver nodules / lesions,[2]; comparing to HCC animals,reduced lesions
same,reticular fibers (reticulin staining),[2]; comparing to HCC group,reduced reticular fibers' breakage and restored their morphology
same,genes downregulated,HepG2 cells [3]; 12 hours,"3,769 genes"
same,genes upregulated,HepG2 cells [3]; 12 hours,"2,812 genes"
same,genes significantly differentially expressed,HepG2 cells [3]; 12 hours,"6,581 genes"
same,genes downregulated,HepG2 cells [3]; 24 hours,"5,331 genes"
same,genes upregulated,HepG2 cells [3]; 24 hours,"2,458 genes"
same,genes significantly differentially expressed,HepG2 cells [3]; 24 hours,"7,789 genes"
same,"N, GO term Cell migration",HepG2 cells [3]; Downregulated 12 h,28
same,"N, GO term Growth",HepG2 cells [3]; Downregulated 12 h,27
same,"N, GO term Wound healing",HepG2 cells [3]; Downregulated 12 h,25
same,"N, GO term Cell adhesion",HepG2 cells [3]; Downregulated 24 h,149
same,"N, GO term Signal transduction",HepG2 cells [3]; Downregulated 24 h,327
same,"N, GO term Wound healing",HepG2 cells [3]; Downregulated 24 h,32
same,"N, GO term Cellular Response to DNA damage stimulus",HepG2 cells [3]; Upregulated 12 h,48
same,"N, GO term Proteasome-mediated ubiquitin-dependent protein catabolic process",HepG2 cells [3]; Upregulated 12 h,47
same,"N, GO term Response to unfolded protein",HepG2 cells [3]; Upregulated 12 h,14
same,"N, GO term Apoptotic mitochondrial changes",HepG2 cells [3]; Upregulated 24 h,6
same,"N, GO term Proteasome-mediated ubiquitin-dependent protein catabolic process",HepG2 cells [3]; Upregulated 24 h,50
same,"N, GO term Response to unfolded protein",HepG2 cells [3]; Upregulated 24 h,12
same,oral LD50,[4],5.53 mL/kg
same,IC50,HepG2 cells [5],500 µM
